Data as given in patent US20080269279A1, “Substituted furo[2,3-B] pyridine derivatives as cannabinoid-1 receptor modulators” (priority 2007, published 2008).

system: human GABA α1β3β2 receptors; test: GABAa, 3H-muscimol binding assay; conditions: activity at 10 μM as percentage of activity of control compound P18 at 10 μM (increase of 3H-muscimol binding)
Description: Membranes from recombinant Ltk cells expressing human GABA α1β3β2 receptors were suspended in an ice-cold solution of 100 mM KCl, 10 mM KH2PO4, adjusted to pH=7.4 with 1 M KOH. Tritiated muscimol (PerkinElmer, Wellesley, Mass.) at a concentration of 2 nM, and serial five-fold dilutions of test compounds at 10 μM, 2.0 μM, 400 nM, 80 nM, 16 nM, 3.2 nM, 0.64 nM and 0.13 nM were mixed in 96-well plates containing 200 μL of membrane suspension. Cold muscimol and compound P18 were used as negative and positive controls respectively. The assay mixture was incubated at 4° C. for 2 hours, then harvested on GF/C filter plates and washed with ice-cold 50 mM Tris-Ci buffer. The filter plates were dried and counted in a Wallac MicroBeta® Trilux detector (Model 1450-030; PerkinElmer, Wellesley, Mass.), and the data were downloaded and analyzed using Prism 3.0. The activity of compound P18 at 10 μM was used as reference for the test compounds, and it was expressed as increasing ^3H-muscimol binding by 100%, whereas cold muscimol at 2 μM antagonized ^3H-muscimol binding by 100%. The tested compound's activity at 10 μM was expressed as a percentage of compound P18's activity at 10 μM.
As a reference, the parent compound (the compound not substituted with a R^4 heteroaryl, such as pyrazole or 1,2,4-oxadiazole, as indicated below) is also shown with its Gamma Amino Butyric Acid (GABA) Receptor activity. […] As a result, the compounds of the present invention in which R^4 is a heteroaryl, such as pyrazole or 1,2,4-oxadiazole, have the unexpected benefits of minimizing off target activity at the GABA receptor.
Note: % GABA is defined as the GABA activity of the indicated compound expressed as a percentage of the activity of control compound P18. NA=data not available.

In order of falling “% GABA Example” value:
1. CCc1c(C(=O)C(C)(C)O)oc2nc(-c3ccc(-c4c[nH]nc4C)cc3Cl)c(-c3ccc(Cl)cc3)cc12 [Example 35, 1-[6-[2-Chloro-4-(3-methyl-1H-pyrazol-4-yl)phenyl]-5-(4-chlorophenyl)-3-ethylfuro[2,3-b]pyridin-2-yl]-2-hydroxy-2-methylpropan-1-one]  59%
2. Cc1c(C(=O)C(C)(C)O)oc2nc(-c3ccc(-c4cn[nH]c4)cc3Cl)c(-c3ccc(Cl)cc3)cc12 [Example 9, 1-{5-(4-Chlorophenyl)-6-[2-chloro-4-(1H-pyrazol-4-yl)phenyl]-3-methylfuro[2,3-b]pyridin-2-yl}-2-hydroxy-2-methylpropan-1-one]  30%
3. CCC(=O)c1oc2nc(-c3ccc(-c4cc[nH]n4)cc3Cl)c(-c3ccc(Cl)cc3)cc2c1C [Example 26, 1-{5-(4-Chlorophenyl)-6-[2-chloro-4-(1H-pyrazol-3-yl)phenyl]-3-methylfuro[2,3-b]pyridin-2-yl}propan-1-one]  28%
4. CC(C)(O)C(=O)c1oc2nc(-c3ccc(-c4cc[nH]n4)cc3Cl)c(-c3ccc(Cl)cc3)cc2c1N [Example 21, 1-{3-Amino-5-(4-chlorophenyl)-6-[2-chloro-4-(1H-pyrazol-3-yl)phenyl]furo-[2,3-b]pyridin-2-yl}-2-hydroxy-2-methylpropan-1-one]  27%
5. CCC(=O)c1oc2nc(-c3ccc(-c4cn[nH]c4)cc3Cl)c(-c3ccc(Cl)cc3)cc2c1N [Example 8, 1-{3-Amino-5-(4-chlorophenyl)-6-[2-chloro-4-(1H-pyrazol-4-yl)phenyl]furo[2,3-b]pyridin-2-yl}propan-1-one]  26%
6. CC(=O)n1cc(-c2ccc(-c3nc4oc(C(=O)C(C)(C)O)c(N)c4cc3-c3ccc(Cl)cc3)c(Cl)c2)cn1 [Example 30, 1-[6-[4-(1-Acetyl-1H-pirazol-4-yl)-2-chlorophenyl]-3-amino-5-(4-chlorophenyl)furo[2,3-b]pyridin-2-yl]-2-hydroxy-2-methylpropan-1-one]  19%
7. CC(=O)Nc1c(C(=O)C(C)(C)C)oc2nc(-c3ccc(-c4cc[nH]n4)cc3Cl)c(-c3ccc(Cl)cc3)cc12 [Example 19, N-[5-(4-Chlorophenyl)-6-[2-chloro-4-(1H-pyrazol-3-yl)phenyl]-2-(2,2-dimethylpropanoyl)furo[2,3-b]pyridin-3-yl]acetamide]  16%
8. Cc1n[nH]cc1-c1ccc(-c2nc3oc(C(=O)C(C)(C)C)c(C)c3cc2-c2ccc(Cl)cc2)c(Cl)c1 [Example 36, 1-[6-[2-Chloro-4-(3-methyl-1H-pyrazol-4-yl)phenyl]-5-(4-chlorophenyl)-3-methylfuro[2,3-b]pyridin-2-yl]-2,2-dimethylpropan-1-one]  16%
9. CC(C)C(=O)c1oc2nc(-c3ccc(-c4cc[nH]n4)cc3Cl)c(-c3ccc(Cl)cc3)cc2c1N1CCCC1=O [Example 28, 1-{5-(4-Chlorophenyl)-6-[2-chloro-4-(1H-pyrazol-3-yl)phenyl]-2-isobutyrylfuro[2,3-b]pyridin-3-yl}pyrrolidin-2-one]  16%
10. CCC(=O)c1oc2nc(-c3ccc(-c4cn[nH]c4)cc3Cl)c(-c3ccc(Cl)cc3)cc2c1NC(=O)C(C)(C)O [Example 13, N-{5-(4-Chlorophenyl)-6-[2-chloro-4-(1H-pyrazol-4-yl)phenyl]-2-propionylfuro[2,3-b]pyridin-3-yl}-2-hydroxy-2-methylpropanamide]  15%
11. CC(C)(C)C(=O)c1oc2nc(-c3ccc(-c4cc[nH]n4)cc3Cl)c(-c3ccc(Cl)cc3)cc2c1C(N)=O [Example 20, 5-(4-Chlorophenyl)-6-[2-chloro-4-(1H-pyrazol-3-yl)phenyl]-2-(2,2-dimethylpropanoyl)furo[2,3-b]pyridine-3-carboxamide]  13%
12. CCC(=O)c1oc2nc(-c3ccc(-c4cn[nH]c4)cc3Cl)c(-c3ccc(Cl)cc3)cc2c1NC(=O)[C@H](C)O [Example 15, (2S)-N-{5-(4-Chlorophenyl)-6-[2-chloro-4-(1H-pyrazol-4-yl)phenyl]-2-propionylfuro[2,3-b]pyridin-3-yl}-2-hydroxypropanamide]  13%
13. CC(=O)Nc1c(C(=O)C(C)(C)C)oc2nc(-c3ccc(-c4cn[nH]c4)cc3Cl)c(-c3ccc(Cl)cc3)cc12 [Example 4, N-[5-(4-Chlorophenyl)-6-[2-chloro-4-(1H-pyrazol-4-yl)phenyl]-2-(2,2-dimethylpropanoyl)furo[2,3-b]pyridin-3-yl]acetamide]  12%
14. Cc1c(C(=O)C(C)(C)C)oc2nc(-c3ccc(-c4ncon4)cc3Cl)c(-c3ccc(Cl)cc3)cc12 [Example 42, 1-[6-[2-Chloro-4-(1,2,4-oxadiazol-3-yl)phenyl]-5-(4-chlorophenyl)-3-methylfuro[2,3-b]pyridin-2-yl]-2,2-dimethylpropan-1-one]  5%
15. CC(C)C(=O)Nc1c(C(=O)C(C)(C)C)oc2nc(-c3ccc(-c4cn[nH]c4)cc3Cl)c(-c3ccc(Cl)cc3)cc12 [Example 6, N-[5-(4-Chlorophenyl)-6-[2-chloro-4-(1H-pyrazol-4-yl)phenyl]-2-(2,2-dimethylpropanoyl)furo[2,3-b]pyridin-3-yl]-2-methylpropanamide]  3%

same assay, conditions: parent compound without R^4 heteroaryl; activity at 10 μM as percentage of activity of control compound P18 at 10 μM

In order of falling “% GABA Parent” value:
1. CC(C)C(=O)c1oc2nc(-c3ccccc3Cl)c(-c3ccc(Cl)cc3)cc2c1N1CCCC1=O [Example P17, reference compound]  100%
2. CC(C)(O)C(=O)c1oc2nc(-c3ccccc3Cl)c(-c3ccc(Cl)cc3)cc2c1NC(=O)CO [Example P18, reference compound]  100%
3. CC(=O)Nc1c(C(=O)C(C)(C)O)oc2nc(-c3ccccc3Cl)c(-c3ccc(Cl)cc3)cc12 [Example P1, reference compound]  99%
4. CC(C)(C)C(=O)c1oc2nc(-c3ccccc3Cl)c(-c3ccc(Cl)cc3)cc2c1NC(=O)CO [Example P16, reference compound]  90%
5. CC(=O)c1c(C(=O)C(C)(C)C)oc2nc(-c3ccccc3Cl)c(-c3ccc(Cl)cc3)cc12 [Example P21, reference compound]  62%
6. CC(C)(C)C(=O)c1oc2nc(-c3ccccc3Cl)c(-c3ccc(Cl)cc3)cc2c1CO [Example P20, reference compound]  50%
7. CCC(=O)c1oc2nc(-c3ccccc3Cl)c(-c3ccc(Cl)cc3)cc2c1C [Example P15, reference compound]  50%
8. Cc1c(C(=O)C(C)(C)C)oc2nc(-c3ccccc3Cl)c(-c3ccc(Cl)cc3)cc12 [Example P8, reference compound]  25%
